Patent US10105357B2, “Indication of antibiotic drugs for preparation of cancer inhibition pharmaceutical composition” (LAUNX BIOMEDICAL CO., LTD., priority 2014, dated 2018)
Read-outs that look alike come from different tables or passages of the source.

Assays:
Type in all cases: cell-based, human
[1] = tested on: LoVo (Colorectal Adenocarcinoma); experiment: Cell viability analysis, colon cancer LoVo; details: Homo sapiens, LoVo, 72 h
[2] = tested on: NIH: OVCAR-3; experiment: Cell viability analysis, ovarian cancer NIH: OVCAR-3; details: Homo sapiens, OVCAR-3, 72 h, read-out: The results of antibiotic drug inhibiting cancer cell lines (cell viability analysis), NIH-OVCAR-3
[3] = tested on: 786-O (Renal adenocarcinoma); experiment: Cell viability analysis, renal cancer 786-O; details: Homo sapiens, 786-0, 72 h, read-out: The results of antibiotic drug inhibiting cancer cell lines (cell viability analysis), 786-O
[4] = tested on: AGS (Gastric Adenocarcinoma); experiment: Cell viability analysis, gastric cancer AGS; details: Homo sapiens, 72 h
[5] = tested on: HeLa (Cervix Adenocarcinoma); experiment: Cell viability analysis, cervical cancer HeLa; details: Homo sapiens, HeLa, 72 h
[6] = tested on: TOV-21G; experiment: Cell viability analysis, ovarian cancer TOV-21G; details: Homo sapiens, TOV21G, 72 h, read-out: The results of antibiotic drug inhibiting cancer cell lines (cell viability analysis), TOV-21G
[7] = tested on: Hep3B (hepatocellular carcinoma); experiment: Cell viability analysis, hepatic cancer Hep3B; details: Homo sapiens, Hep3B, 72 h, read-out: The results of antibiotic drug inhibiting cancer cell lines (cell viability analysis), Hep3B
[8] = tested on: HL-60 (Acute Promyelocytic Leukemia); experiment: Cell viability analysis, leukemia HL-60; details: Homo sapiens, HL-60, 72 h, read-out: cell viability (survival rate), HL-60, drug 10 μM, 72 hours, WST-1, OD450 nm
[9] = tested on: MCF7 (Mammary Gland, Adenocarcinoma); experiment: Cell viability analysis, breast cancer MCF7; details: Homo sapiens, MCF7, 72 h
[10] = tested on: T24; experiment: Cell viability analysis, bladder cancer T24; details: Homo sapiens, T-24, 72 h, read-out: The results of antibiotic drug inhibiting cancer cell lines (cell viability analysis), T24
[11] = tested on: cancer cell lines; experiment: Cell viability analysis (WST-1) on cancer cell lines; details: drug 10 μM, 72 hours, WST-1; Table 3
[12] = tested on: HI650 (Lung Adenocarcinoma); experiment: Cell viability analysis, lung cancer HI650; details: Homo sapiens, NCI-H1650, 72 h
[13] = tested on: SAS (Tongue squamous cell carcinoma); experiment: Cell viability analysis, tongue cancer SAS; details: Homo sapiens, 72 h, read-out: The results of antibiotic drug inhibiting cancer cell lines (cell viability analysis), SAS
[14] = tested on: MKN-45 (Gastric Adenocarcinoma); experiment: Cell viability analysis, gastric cancer MKN-45; details: Homo sapiens, MKN-45, 72 h
[15] = tested on: A549 (Lung Adenocarcinoma); experiment: Cell viability analysis, lung cancer A549; details: Homo sapiens, A549, 72 h
[16] = tested on: C-33A (Cervical carcinoma); experiment: Cell viability analysis, cervical cancer C-33A; details: Homo sapiens, C-33-A, 72 h, read-out: The results of antibiotic drug inhibiting cancer cell lines (cell viability analysis), C-33A
[17] = tested on: MDA-MB-231 (Mammary Gland, Adenocarcinoma); experiment: Cell viability analysis, breast cancer MDA-MB-231; details: Homo sapiens, MDA-MB-231, 72 h, read-out: The results of antibiotic drug inhibiting cancer cell lines (cell viability analysis), MDA-MB231
[18] = tested on: TSGH-8301 (Urinary Bladder Carcinoma); experiment: Cell viability analysis, bladder cancer TSGH-8301; details: Homo sapiens, 72 h
[19] = tested on: A375 (Amelanotic Melanoma); experiment: Cell viability analysis, skin cancer A375; details: Homo sapiens, A-375, 72 h
[20] = tested on: BCC (basal cell carcinoma); experiment: Cell viability analysis, skin cancer BCC; details: Homo sapiens, 72 h, read-out: The results of antibiotic drug inhibiting cancer cell lines (cell viability analysis), BCC
[21] = tested on: U-2OS; experiment: Cell viability analysis, osteosarcoma U-2OS; details: Homo sapiens, U2OS, 72 h, read-out: The results of antibiotic drug inhibiting cancer cell lines (cell viability analysis), U2OS
[22] = tested on: AsPC-1; experiment: Cell viability analysis, pancreatic cancer AsPC-1; details: Homo sapiens, ASPC1, 72 h, read-out: The results of antibiotic drug inhibiting cancer cell lines (cell viability analysis), AsPC-1
[23] = tested on: HepG2 (Hepatocellular Carcinoma); experiment: Cell viability analysis, hepatic cancer HepG2; details: Homo sapiens, HepG2, 72 h
[24] = tested on: BxPC-3; experiment: Cell viability analysis, pancreatic cancer BxPC-3; details: Homo sapiens, BXPC-3, 72 h, read-out: The results of antibiotic drug inhibiting cancer cell lines (cell viability analysis), BxPC-3

O=c1[nH]c(=O)n([C@H]2C[C@H](O)[C@@H](CO)O2)cc1C(F)(F)F [Trifluridine (Viroptic), Trifluridine]
viability at 10 µM ([1]; read-out: The results of antibiotic drug inhibiting cancer cell lines (cell viability analysis), LoVo, repeated experiment): 62.5%
viability at 10 µM ([1]; read-out: cell viability (survival rate), LoVo, drug 10 μM, 72 hours, WST-1, OD450 nm): 72.1%
viability at 10 µM [2]: 105%
viability at 10 µM [3]: 37.9%
viability at 10 µM ([4]; read-out: The results of antibiotic drug inhibiting cancer cell lines (cell viability analysis), AGS, repeated experiment): 83.2%
viability at 10 µM ([4]; read-out: cell viability (survival rate), AGS, drug 10 μM, 72 hours, WST-1, OD450 nm): 64.4%
viability at 10 µM ([5]; read-out: The results of antibiotic drug inhibiting cancer cell lines (cell viability analysis), HeLa, repeated experiment): 86.9%
viability at 10 µM ([5]; read-out: cell viability (survival rate), HeLa, drug 10 μM, 72 hours, WST-1, OD450 nm): 51.8%
viability at 10 µM [6]: 81.4%
viability at 10 µM [7]: 77.6%
viability at 10 µM [8]: 88.9%
viability at 10 µM ([9]; read-out: The results of antibiotic drug inhibiting cancer cell lines (cell viability analysis), MCF-7, MCF-7, repeated experiment): 79.6%
viability at 10 µM ([9]; read-out: cell viability (survival rate), MCF7, drug 10 μM, 72 hours, WST-1, OD450 nm): 36.3%
viability at 10 µM [10]: 55.4%
inhibition effect on different cancer cell lines [11]: significant inhibition effect
viability at 10 µM ([12]; read-out: The results of antibiotic drug inhibiting cancer cell lines (cell viability analysis), H1650, H1650, repeated experiment): 78%
viability at 10 µM ([12]; read-out: cell viability (survival rate), H1650, drug 10 μM, 72 hours, WST-1, OD450 nm): 71%
viability at 10 µM [13]: 33.5%
viability at 10 µM ([14]; read-out: The results of antibiotic drug inhibiting cancer cell lines (cell viability analysis), MKN-45, MKN-45, repeated experiment): 89.5%
viability at 10 µM ([14]; read-out: cell viability (survival rate), MKN-45, drug 10 μM, 72 hours, WST-1, OD450 nm): 43.6%
viability at 10 µM ([15]; read-out: The results of antibiotic drug inhibiting cancer cell lines (cell viability analysis), A549, A549, repeated experiment): 61.6%
viability at 10 µM ([15]; read-out: cell viability (survival rate), A549, drug 10 μM, 72 hours, WST-1, OD450 nm): 36.5%
viability at 10 µM [16]: 66.5%
viability at 10 µM [17]: 75.1%
viability at 10 µM ([18]; read-out: The results of antibiotic drug inhibiting cancer cell lines (cell viability analysis), TSGH-8301, TSGH-8301, repeated experiment): 86.4%
viability at 10 µM ([18]; read-out: cell viability (survival rate), TSGH, drug 10 μM, 72 hours, WST-1, OD450 nm): 51.3%
viability at 10 µM ([19]; read-out: The results of antibiotic drug inhibiting cancer cell lines (cell viability analysis), A375, A375, repeated experiment): 59.4%
viability at 10 µM ([19]; read-out: cell viability (survival rate), A375, drug 10 μM, 72 hours, WST-1, OD450 nm): 48.6%
viability at 10 µM [20]: 83.3%
viability at 10 µM [21]: 61.2%
viability at 10 µM [22]: 62.1%
viability at 10 µM ([23]; read-out: The results of antibiotic drug inhibiting cancer cell lines (cell viability analysis), HepG2, HepG2, repeated experiment): 85.6%
viability at 10 µM ([23]; read-out: cell viability (survival rate), HepG2, drug 10 μM, 72 hours, WST-1, OD450 nm): 90.2%
viability at 10 µM [24]: 73.1%
